Laboratory results reported in ChEMBL document CHEMBL5543142, “Discovery of YFJ-36: Design, Synthesis, and Antibacterial Activities of Catechol-Conjugated β-Lactams against Gram-Negative Bacteria” (J Med Chem, 2024).

Key:
[1] = Clearance in ICR mouse at 20 mg/kg,iv administration measured upto 6 hrs by LC-MS/MS analysis; assay type: ADME, organism-based; settings: in vivo
[2] = MRT in ICR mouse at 20 mg/kg,iv administration measured upto 6 hrs by LC-MS/MS analysis; assay type: ADME, organism-based; settings: in vivo
Acinetobacter baumannii [3] = experiment: Antibacterial activity against OXA-23 producing multidrug-resistant Acinetobacter baumannii clinical isolate 15-1 assessed as inhibition of bacterial growth incubated for 18 to 20 hrs by two fold serial dilution assay; assay type: functional; settings: time 18-20 hrs
Escherichia coli [4] = experiment: Antibacterial activity against Escherichia coli NCTC-13353 assessed as inhibition of bacterial growth incubated for 18 to 20 hrs in presence of CAMHB medium by two fold serial dilution assay; assay type: functional; settings: time 18-20 hrs
[5] = Half life in ICR mouse at 20 mg/kg,iv administration measured upto 6 hrs by LC-MS/MS analysis; assay type: ADME, organism-based; settings: in vivo
Escherichia coli [6] = experiment: Antibacterial activity against ESBL-producing multidrug-resistant Escherichia coli clinical isolate 14-2 assessed as inhibition of bacterial growth incubated for 18 to 20 hrs by two fold serial dilution assay; assay type: functional; settings: time 18-20 hrs
Escherichia coli [7] = experiment: Antibacterial activity against Escherichia coli ATCC35218 assessed as inhibition of bacterial growth incubated for 18 to 20 hrs by two fold serial dilution assay; assay type: functional; settings: time 18-20 hrs
Klebsiella pneumoniae [8] = experiment: Antibacterial activity against Klebsiella pneumoniae ATCC BAA-1898 assessed as inhibition of bacterial growth incubated for 18 to 20 hrs in presence of CAMHB medium by two fold serial dilution assay; assay type: functional; settings: time 18-20 hrs
[9] = Volume of distribution at steady state in ICR mouse at 20 mg/kg,iv administration measured upto 6 hrs by LC-MS/MS analysis; assay type: ADME, organism-based; settings: in vivo, read-out: Vdss
Escherichia coli [10] = experiment: Antibacterial activity against ESBL-producing multidrug-resistant Escherichia coli clinical isolate 14-1 assessed as inhibition of bacterial growth incubated for 18 to 20 hrs by two fold serial dilution assay; assay type: functional; settings: time 18-20 hrs
Klebsiella pneumoniae [11] = experiment: Antibacterial activity against Klebsiella pneumoniae ATCC BAA-1898 assessed as inhibition of bacterial growth incubated for 18 to 20 hrs in presence of iron-depleted CAMHB medium by two fold serial dilution assay; assay type: functional; settings: time 18-20 hrs
Escherichia coli [12] = experiment: Antibacterial activity against Escherichia coli ATCC-35218 assessed as inhibition of bacterial growth incubated for 18 to 20 hrs in presence of CAMHB medium by two fold serial dilution assay; assay type: functional; settings: time 18-20 hrs
Pseudomonas aeruginosa [13] = experiment: Antibacterial activity against IMP-4 producing multidrug-resistant Pseudomonas aeruginosa clinical isolate 17-13 assessed as inhibition of bacterial growth incubated for 18 to 20 hrs by two fold serial dilution assay; assay type: functional; settings: time 18-20 hrs
Klebsiella pneumoniae [14] = experiment: Antibacterial activity against KPC-2 producing multidrug-resistant Klebsiella pneumoniae clinical isolate 15-1 assessed as inhibition of bacterial growth incubated for 18 to 20 hrs by two fold serial dilution assay; assay type: functional; settings: time 18-20 hrs
Acinetobacter baumannii [15] = experiment: Antibacterial activity against OXA-23 producing multidrug-resistant Acinetobacter baumannii clinical isolate 15-4 assessed as inhibition of bacterial growth incubated for 18 to 20 hrs by two fold serial dilution assay; assay type: functional; settings: time 18-20 hrs
Escherichia coli [16] = experiment: Antibacterial activity against ESBL-producing multidrug-resistant Escherichia coli clinical isolate 14-4 assessed as inhibition of bacterial growth incubated for 18 to 20 hrs by two fold serial dilution assay; assay type: functional; settings: time 18-20 hrs
Klebsiella pneumoniae [17] = experiment: Antibacterial activity against KPC-2 producing multidrug-resistant Klebsiella pneumoniae clinical isolate 15-5 assessed as inhibition of bacterial growth incubated for 18 to 20 hrs by two fold serial dilution assay; assay type: functional; settings: time 18-20 hrs
Escherichia coli [18] = experiment: Antibacterial activity against Escherichia coli ATCC-35218 assessed as inhibition of bacterial growth incubated for 18 to 20 hrs in presence of iron-depleted CAMHB medium by two fold serial dilution assay; assay type: functional; settings: time 18-20 hrs
Klebsiella pneumoniae [19] = experiment: Antibacterial activity against KPC-2 producing multidrug-resistant Klebsiella pneumoniae clinical isolate 15-3 assessed as inhibition of bacterial growth incubated for 18 to 20 hrs by two fold serial dilution assay; assay type: functional; settings: time 18-20 hrs
hERG (KCNH2) = hERG (KCNH2) (Homo sapiens, UniProt Q12809); experiment: Inhibition of hERG at 40 uM by whole cell Qpatch assay relative to control; assay type: toxicity
Pseudomonas aeruginosa [20] = experiment: Antibacterial activity against IMP-4 producing multidrug-resistant Pseudomonas aeruginosa clinical isolate 19-17 assessed as inhibition of bacterial growth incubated for 18 to 20 hrs by two fold serial dilution assay; assay type: functional; settings: time 18-20 hrs
[21] = biological target: Voltage-gated inwardly rectifying potassium channel KCNH2 (Homo sapiens, UniProt Q12809); experiment: Inhibition of hERG by whole cell Qpatch assay; assay type: toxicity
Klebsiella pneumoniae [22] = experiment: Antibacterial activity against KPC-2 producing multidrug-resistant Klebsiella pneumoniae clinical isolate 15-2 assessed as inhibition of bacterial growth incubated for 18 to 20 hrs by two fold serial dilution assay; assay type: functional; settings: time 18-20 hrs
Escherichia coli [23] = experiment: Antibacterial activity against Escherichia coli NCTC-13353 assessed as inhibition of bacterial growth incubated for 18 to 20 hrs in presence of iron-depleted CAMHB medium by two fold serial dilution assay; assay type: functional; settings: time 18-20 hrs
Acinetobacter baumannii [24] = experiment: Antibacterial activity against OXA-23 producing multidrug-resistant Acinetobacter baumannii clinical isolate 15-3 assessed as inhibition of bacterial growth incubated for 18 to 20 hrs by two fold serial dilution assay; assay type: functional; settings: time 18-20 hrs
Acinetobacter baumannii [25] = experiment: Antibacterial activity against OXA-23 producing multidrug-resistant Acinetobacter baumannii clinical isolate 15-2 assessed as inhibition of bacterial growth incubated for 18 to 20 hrs by two fold serial dilution assay; assay type: functional; settings: time 18-20 hrs
Pseudomonas aeruginosa [26] = experiment: Antibacterial activity against IMP-4 producing multidrug-resistant Pseudomonas aeruginosa clinical isolate 17-1 assessed as inhibition of bacterial growth incubated for 18 to 20 hrs by two fold serial dilution assay; assay type: functional; settings: time 18-20 hrs
Acinetobacter baumannii [27] = experiment: Antibacterial activity against OXA-23 producing multidrug-resistant Acinetobacter baumannii clinical isolate 15-5 assessed as inhibition of bacterial growth incubated for 18 to 20 hrs by two fold serial dilution assay; assay type: functional; settings: time 18-20 hrs
[28] = AUC (0 to infinity) in ICR mouse at 20 mg/kg,iv administration measured upto 6 hrs by LC-MS/MS analysis; assay type: ADME, organism-based; settings: in vivo
Pseudomonas aeruginosa [29] = experiment: Antibacterial activity against IMP-4 producing multidrug-resistant Pseudomonas aeruginosa clinical isolate 19-5 assessed as inhibition of bacterial growth incubated for 18 to 20 hrs by two fold serial dilution assay; assay type: functional; settings: time 18-20 hrs
[30] = Plasma protein binding in mouse incubated for 35 mins by LC-MS/MS analysis; assay type: ADME, cell-free; settings: read-out: PPB (converted)
Pseudomonas aeruginosa [31] = experiment: Antibacterial activity against IMP-4 producing multidrug-resistant Pseudomonas aeruginosa clinical isolate 19-1 assessed as inhibition of bacterial growth incubated for 18 to 20 hrs by two fold serial dilution assay; assay type: functional; settings: time 18-20 hrs
Acinetobacter baumannii [32] = experiment: Antibacterial activity against OXA-23 producing multidrug-resistant Acinetobacter baumannii clinical isolate 17-2 assessed as inhibition of bacterial growth incubated for 18 to 20 hrs by two fold serial dilution assay; assay type: functional; settings: time 18-20 hrs
Acinetobacter baumannii [33] = experiment: Antibacterial activity against OXA-23 producing multidrug-resistant Acinetobacter baumannii clinical isolate 17-3 assessed as inhibition of bacterial growth incubated for 18 to 20 hrs by two fold serial dilution assay; assay type: functional; settings: time 18-20 hrs
Acinetobacter baumannii [34] = experiment: Antibacterial activity against OXA-23 producing multidrug-resistant Acinetobacter baumannii clinical isolate 17-8 assessed as inhibition of bacterial growth incubated for 18 to 20 hrs by two fold serial dilution assay; assay type: functional; settings: time 18-20 hrs
Acinetobacter baumannii [35] = experiment: Antibacterial activity against OXA-23 producing multidrug-resistant Acinetobacter baumannii clinical isolate 17-6 assessed as inhibition of bacterial growth incubated for 18 to 20 hrs by two fold serial dilution assay; assay type: functional; settings: time 18-20 hrs
Acinetobacter baumannii [36] = experiment: Antibacterial activity against OXA-23 producing multidrug-resistant Acinetobacter baumannii clinical isolate 17-5 assessed as inhibition of bacterial growth incubated for 18 to 20 hrs by two fold serial dilution assay; assay type: functional; settings: time 18-20 hrs
Acinetobacter baumannii [37] = experiment: Antibacterial activity against OXA-23 producing multidrug-resistant Acinetobacter baumannii clinical isolate 17-7 assessed as inhibition of bacterial growth incubated for 18 to 20 hrs by two fold serial dilution assay; assay type: functional; settings: time 18-20 hrs

hERG (KCNH2), sequence (Q12809 whole entry): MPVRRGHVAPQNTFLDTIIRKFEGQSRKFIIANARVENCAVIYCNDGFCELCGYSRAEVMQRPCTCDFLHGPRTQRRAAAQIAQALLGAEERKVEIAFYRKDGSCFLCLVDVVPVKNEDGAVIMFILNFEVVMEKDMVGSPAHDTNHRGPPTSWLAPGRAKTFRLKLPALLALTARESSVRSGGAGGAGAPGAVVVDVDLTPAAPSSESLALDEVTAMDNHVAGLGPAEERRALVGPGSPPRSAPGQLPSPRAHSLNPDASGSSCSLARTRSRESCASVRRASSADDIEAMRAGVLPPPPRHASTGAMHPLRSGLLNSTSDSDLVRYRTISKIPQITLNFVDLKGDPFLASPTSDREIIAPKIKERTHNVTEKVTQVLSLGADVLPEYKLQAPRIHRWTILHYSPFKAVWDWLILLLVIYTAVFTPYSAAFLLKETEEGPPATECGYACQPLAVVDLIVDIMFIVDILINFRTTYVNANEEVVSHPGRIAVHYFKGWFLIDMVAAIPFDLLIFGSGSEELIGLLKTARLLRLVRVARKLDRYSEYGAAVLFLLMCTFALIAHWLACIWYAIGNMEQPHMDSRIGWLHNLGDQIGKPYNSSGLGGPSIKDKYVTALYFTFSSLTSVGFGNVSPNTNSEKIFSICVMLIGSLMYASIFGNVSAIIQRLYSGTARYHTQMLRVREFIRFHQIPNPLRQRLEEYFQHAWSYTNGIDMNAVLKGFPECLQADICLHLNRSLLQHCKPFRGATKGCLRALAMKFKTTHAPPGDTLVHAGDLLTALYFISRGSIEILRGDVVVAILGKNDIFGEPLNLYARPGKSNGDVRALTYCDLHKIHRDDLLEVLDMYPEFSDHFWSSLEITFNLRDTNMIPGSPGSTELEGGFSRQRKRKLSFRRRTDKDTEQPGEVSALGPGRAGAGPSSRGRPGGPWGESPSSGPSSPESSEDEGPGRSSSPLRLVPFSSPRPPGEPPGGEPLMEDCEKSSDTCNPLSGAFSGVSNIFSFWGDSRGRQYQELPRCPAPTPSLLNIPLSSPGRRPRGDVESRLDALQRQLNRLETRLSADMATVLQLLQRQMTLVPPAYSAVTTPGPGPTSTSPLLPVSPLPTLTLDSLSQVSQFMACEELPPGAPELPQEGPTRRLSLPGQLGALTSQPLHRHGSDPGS
Voltage-gated inwardly rectifying potassium channel KCNH2, sequence (Q12809 whole entry): as above

Row | SMILES | clearance [1] [mL/min/kg] | MRT [2] [min] | MIC (Acinetobacter baumannii [3]) [µg/mL] | half-life [5] [min] | MIC (Escherichia coli [6]) [µg/mL] | MIC (Escherichia coli [7]) [µg/mL] | Vd [9] [L/kg] | MIC (Escherichia coli [10]) [µg/mL] | MIC (Pseudomonas aeruginosa [13]) [µg/mL] | MIC (Klebsiella pneumoniae [14]) [µg/mL] | MIC (Acinetobacter baumannii [15]) [µg/mL] | MIC (Escherichia coli [16]) [µg/mL] | MIC (Klebsiella pneumoniae [17]) [µg/mL] | MIC (Klebsiella pneumoniae [19]) [µg/mL] | MIC (Pseudomonas aeruginosa [20]) [µg/mL] | MIC (Klebsiella pneumoniae [22]) [µg/mL] | MIC (Acinetobacter baumannii [24]) [µg/mL] | MIC (Acinetobacter baumannii [25]) [µg/mL] | MIC (Pseudomonas aeruginosa [26]) [µg/mL] | MIC (Acinetobacter baumannii [27]) [µg/mL] | other results
1 | Nc1nc(/C(=N/OC(C(=O)O)C2CCC(F)(F)CC2)C(=O)N[C@@H]2C(=O)N3C(C(=O)O)=C(CSCCNC(=O)c4ccc(O)c(O)c4Cl)CS[C@H]23)cs1.O=C(O)C(F)(F)F (stereo partly drawn) | 33.9 | 45.6 | 4 | 188 | 0.5 | ≤ 0.03 | 1.59 | 0.5 | 0.25 | 2 | 4 | 0.125 | 0.25 | 1 | 1 | 0.5 | 4 | 2 | 4 | 2 | MIC (Escherichia coli [4]): 0.5 µg/mL; MIC (Klebsiella pneumoniae [8]): 8 µg/mL; MIC (Klebsiella pneumoniae [11]): 2 µg/mL; MIC (Escherichia coli [12]): 2 µg/mL; MIC (Escherichia coli [18]): 0.25 µg/mL; inhibition at 40 µM (hERG (KCNH2)): 16.8%; IC50 [21]: > 40 µM; MIC (Escherichia coli [23]): 0.5 µg/mL; AUC(0-inf) [28]: 10400 ng·h/mL
2 | Nc1nc(/C(=N/OC(C(=O)O)C2CCC(F)(F)CC2)C(=O)N[C@@H]2C(=O)N3C(C(=O)O)=C(CSCCNC(=O)c4ccc(O)c(O)c4Cl)CS[C@H]23)c(Cl)s1.O=C(O)C(F)(F)F (stereo partly drawn) | 54.1 | 10.8 | 4 | 20.4 | 0.25 | 0.125 | 0.649 | 0.125 | 0.5 | 0.5 | 8 | 0.5 | 1 | 0.5 | 0.125 | 1 | 4 | 1 | – | 4 | MIC (Pseudomonas aeruginosa [29]): 0.5 µg/mL; fraction unbound at 35 min [30]: 0.031; MIC (Pseudomonas aeruginosa [31]): 8 µg/mL; MIC (Acinetobacter baumannii [32]): 0.25 µg/mL; MIC (Acinetobacter baumannii [33]): 2 µg/mL; AUC(0-inf) [28]: 4740 ng·h/mL
3 | CC(C)[C@@H](O/N=C(\C(=O)N[C@@H]1C(=O)N2C(C(=O)O)=C(CSCCNC(=O)c3ccc(O)c(O)c3Cl)CS[C@H]12)c1csc(N)n1)C(=O)O.O=C(O)C(F)(F)F | – | – | – | – | 1 | 0.5 | – | 0.125 | 0.06 | 0.25 | – | 0.125 | 0.25 | 2 | 0.25 | 0.25 | – | – | 32 | – | MIC (Pseudomonas aeruginosa [29]): 2 µg/mL; MIC (Pseudomonas aeruginosa [31]): 2 µg/mL; MIC (Acinetobacter baumannii [32]): 1 µg/mL; MIC (Acinetobacter baumannii [34]): 1 µg/mL; MIC (Acinetobacter baumannii [35]): 2 µg/mL; MIC (Acinetobacter baumannii [36]): 2 µg/mL; MIC (Acinetobacter baumannii [37]): 4 µg/mL; MIC (Acinetobacter baumannii [33]): 0.5 µg/mL
